Measured values taken from paper PMC11335189, “Revealing molecular determinants governing mambalgin-3 pharmacology at acid-sensing ion channel 1 variants” (Cellular and Molecular Life Sciences: CMLS, 2024).
Read-outs that look alike come from different tables or passages of the source. Positions of bridges follow the written chain, without caps; N, C: chain ends. No end group written: not given here.

Columns and labels:
rASIC1a = target: T1, rASIC1a (Rattus norvegicus, UniProt P55926); assay: TEVC in Xenopus laevis oocytes expressing rASIC1a; type: cell-based; conditions: peptides applied at pH 7.45, stimulated at pH 6
T1 construct: expressed in transfected cells; host or cells: Xenopus laevis oocytes (cRNA injection)
T1 sequence (P55926 1-526): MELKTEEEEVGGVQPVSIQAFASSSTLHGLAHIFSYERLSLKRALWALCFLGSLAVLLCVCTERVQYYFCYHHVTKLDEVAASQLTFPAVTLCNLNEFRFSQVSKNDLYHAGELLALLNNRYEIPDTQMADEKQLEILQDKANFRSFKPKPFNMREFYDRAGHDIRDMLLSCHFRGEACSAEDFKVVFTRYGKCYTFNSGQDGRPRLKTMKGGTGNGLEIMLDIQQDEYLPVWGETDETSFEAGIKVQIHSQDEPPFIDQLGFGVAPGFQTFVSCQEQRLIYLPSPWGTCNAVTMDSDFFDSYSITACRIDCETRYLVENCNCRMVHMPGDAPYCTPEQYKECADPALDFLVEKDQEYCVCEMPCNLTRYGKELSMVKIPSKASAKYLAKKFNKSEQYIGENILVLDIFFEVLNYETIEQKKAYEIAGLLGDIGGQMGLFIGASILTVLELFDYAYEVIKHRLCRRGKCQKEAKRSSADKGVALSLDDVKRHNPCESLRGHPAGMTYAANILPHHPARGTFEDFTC
Method: (§1) Two-electrode voltage-clamp (TEVC) experiments using Xenopus laevis oocytes were conducted as previously described. Briefly, oocytes were surgically removed from anaesthetised female frogs, then treated with collagenase (~ 1 mg/ml, Sigma type I) for 2 h under agitation at room temperature. cRNAs were synthesised using a mMessage mMachine T7 or SP6 transcription kit (Thermo Fisher Scientific Australia Pty Ltd, Scoresby, VIC, Australia) and injected into healthy stage V–VI oocytes at 0.2–20 ng per cell. Different amounts of RNA were used for different wild-type and mutant constructs, as well as to titrate expression levels to record over multiple days and maintaining consistent expression levels. Injected oocytes were incubated at 17 °C for 1–7 days in 50% Leibovitz’s L-15 medium (Gibco, Thermo Fisher Scientific Australia Pty Ltd, Scoresby, VIC, Australia), supplemented with 25 µg/mL gentamicin, 25 µg/mL streptomycin, and 2.5% fetal horse serum. Membrane currents were recorded 2–7 days after cRNA-injection under voltage-clamp at -60 mV (Axon Axoclamp 900 A, Molecular Devices, CA, USA) using two standard glass microelectrodes of 0.5–1 MΩ resistance when filled with 3 M KCl solution. Data were sampled at 2 kHz and filtered at 0.1 kHz using Clampex 10 software (Molecular Devices, CA, USA). A microperfusion system was used to allow fast extracellular solution exchange (bath volume = ~ 30 µL). All experiments were performed at room temperature (18–23 °C) in ND96 (96 mM NaCl, 2 mM KCl, 1.8 mM CaCl2, 2 mM MgCl2, 5 mM HEPES, pH 7.45). In solutions below pH 6.8, HEPES was replaced by MES. All solutions containing peptides contained 0.05% fatty acid free bovine serum albumin to decrease adsorptive losses of peptide to plasticware. For all channels tested, control current magnitudes between 500 and 9000 nA when tested using a conditioning pH of 7.45 and stimulating pH of 6 (except for the chimeras that were stimulated with pH 5) were used for data collection. Before recording any experiments, oocytes were stimulated multiple times with low pH to minimise and stabilise tachyphylaxis/desensitisation, which were then accounted for during analysis. Complete recovery of currents from Ma-3 induced modulation within 3 min of washout at all channels tested allowed for correction for tachyphylaxis/desensitisation during analyses.
(§2) Specific to this work, the standard protocol was for oocytes to be conditioned at pH 7.45 and channels stimulated every 60 s using a 5 s pH 5 or 6 application, unless stated otherwise. For all concentration-response data, peptides were applied for ~ 50 s between each low pH stimulus application. Activation curves were determined by conditioning oocytes at pH 8 (Fig. 2e − g; and Fig. 5a and b) or 7.45 (Fig. 6; and Supplementary Fig. 2d and c) for 55 s and applying low pH stimuli from 7.25 to 5.0 for 5 s. Steady-state desensitisation (SSD) was determined by applying conditioning solutions of pH values from 8 to 6 for 115 s prior to stimulation by a pH drop to 5 for 5 s. Ma-3 was only applied in the conditioning solution for activation and steady-state desensitisation curves in the presence of peptide. Control pH-dependence curves were determined in the absence of any Ma-3. When assessing the effect of Ma-3 on the rASIC1a: ASIC1b chimeras (C92 and C166; and for the comparative wild-type data), the conditioning pH was 7.45 and stimulating pH 5 (Fig. 3b). Specific details of the conditioning and stimulating pH are noted in each figure legend.
(§3) Data were analysed using pCLAMP-Clampfit software (Version 11, Molecular Devices, CA, USA) and GraphPad Prism 9.5 and 10.2.2 (GraphPad Software, San Diego, CA, USA). To obtain the Hill coefficient (nH) and half-maximal response (EC50, IC50, or pH50) the Hill equation was fitted to normalised concentration-response curves by using a non-linear fit to the data of a four-parameter logistic equation (“sigmoidal dose-response” in GraphPad Prism 9.5). […]

hASIC1b = target: T2, hASIC1b (Homo sapiens, UniProt P78348); assay: TEVC in Xenopus laevis oocytes expressing hASIC1b; type: cell-based; conditions: for remaining activity at 1 µM: 1 µM peptide, conditioning pH 7.45, mean, n ≥ 5, read-out: I/Icontrol
T2 construct: expressed in transfected cells; host or cells: Xenopus laevis oocytes (cRNA injection)
T2 sequence (P78348 1-562 isoform P78348-3): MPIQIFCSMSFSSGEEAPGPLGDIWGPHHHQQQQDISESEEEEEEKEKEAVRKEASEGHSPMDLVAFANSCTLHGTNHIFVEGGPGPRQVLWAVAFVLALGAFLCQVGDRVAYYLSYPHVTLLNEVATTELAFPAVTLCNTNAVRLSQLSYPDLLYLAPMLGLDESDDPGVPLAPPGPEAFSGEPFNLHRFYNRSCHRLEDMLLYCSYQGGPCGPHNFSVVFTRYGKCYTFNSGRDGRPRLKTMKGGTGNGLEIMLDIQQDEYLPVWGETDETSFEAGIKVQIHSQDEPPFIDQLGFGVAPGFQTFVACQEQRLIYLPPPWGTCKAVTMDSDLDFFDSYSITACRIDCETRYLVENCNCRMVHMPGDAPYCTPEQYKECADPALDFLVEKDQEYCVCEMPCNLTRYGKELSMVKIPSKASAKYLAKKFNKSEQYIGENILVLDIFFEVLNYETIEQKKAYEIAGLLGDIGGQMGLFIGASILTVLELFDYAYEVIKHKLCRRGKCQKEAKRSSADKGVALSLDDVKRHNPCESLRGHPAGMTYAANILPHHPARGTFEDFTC
Method: as §1, §2, §3

[1] = target: T3, rat acid-sensing ion channel 1a (rat) (UniProt P55926)
T3 sequence: T1 sequence (P55926 1-526)

| Substance | increase in IC50 (loss of potency) relative to wild-type Ma-3 (rASIC1a) | remaining activity at 1 µM (hASIC1b; pH 5 evoked currents) [%] | remaining activity at 1 µM (hASIC1b; pH 6 evoked currents) [%] | Hill slope (95% CI) (hASIC1b; conditioning pH 7.45, pH 6 evoked currents, potentiation, 95% CI) | fold increase of the IC50 of current inhibition against wild-type Ma-3 (conditioning pH 7.45, stimulus pH 6) [1] [fold] |
| --- | --- | --- | --- | --- | --- |
| H-SLKCYQAGKVVTCHRDMKFCYHNIGMPFRNLKLILQGCSSSCSETENNKCCSTDRCNK (disulfide 4-20, 13-38, 42-50, 51-56 (inferred)) [H6A] | greater than 10 fold | 98 | 103 |  |  |
| H-SLKCYQHGKVVTCARDMKFCYHNIGMPFRNLKLILQGCSSSCSETENNKCCSTDRCNK (disulfide 4-20, 13-38, 42-50, 51-56 (inferred)) [H13A] |  | 74 | 142 |  |  |
| H-SLKCYQHGKVVTCHADMKFCYHNIGMPFRNLKLILQGCSSSCSETENNKCCSTDRCNK (disulfide 4-20, 13-38, 42-50, 51-56 (inferred)) [R14A] |  | 77 | 157 |  |  |
| H-SLKCYQHGKVVTCHRDMKFCYHNAGMPFRNLKLILQGCSSSCSETENNKCCSTDRCNK (disulfide 4-20, 13-38, 42-50, 51-56 (inferred)) [I23A] |  | 67 | 159 |  |  |
| H-SLKCYQHGKVVTCHRDMKFCYHNIGMPARNLKLILQGCSSSCSETENNKCCSTDRCNK (disulfide 4-20, 13-38, 42-50, 51-56 (inferred)) [F27A] | greater than 10 fold | 96 | 111 |  |  |
| H-SLKCYQHGKVVTCHRDMKFCYHNIGMPFANLKLILQGCSSSCSETENNKCCSTDRCNK (disulfide 4-20, 13-38, 42-50, 51-56 (inferred)) [R28A] | greater than 10 fold | 97 | 118 |  |  |
| H-SLKCYQHGKVVTCHRDMKFCYHNIGMPFRALKLILQGCSSSCSETENNKCCSTDRCNK (disulfide 4-20, 13-38, 42-50, 51-56 (inferred)) [N29A] |  | 76 | 171 |  |  |
| H-SLKCYQHGKVVTCHRDMKFCYHNIGMPFRNAKLILQGCSSSCSETENNKCCSTDRCNK (disulfide 4-20, 13-38, 42-50, 51-56 (inferred)) [L30A] |  | 116 | 172 |  |  |
| H-SLKCYQHGKVVTCHRDMKFCYHNIGMPFRNLALILQGCSSSCSETENNKCCSTDRCNK (disulfide 4-20, 13-38, 42-50, 51-56 (inferred)) [K31A] |  | 94 | 140 |  |  |
| H-SLKCYQHGKVVTCHRDMKFCYHNIGMPFRNLKAILQGCSSSCSETENNKCCSTDRCNK (disulfide 4-20, 13-38, 42-50, 51-56 (inferred)) [L32A] | greater than 10 fold | 96 | 100 |  |  |
| H-SLKCYQHGKVVTCHRDMKFCYHNIGMPFRNLKLALQGCSSSCSETENNKCCSTDRCNK (disulfide 4-20, 13-38, 42-50, 51-56 (inferred)) [I33A] | greater than 10 fold | 100 | 133 |  |  |
| H-SLKCYQHGKVVTCHRDMKFCYHNIGMPFRNLKLIAQGCSSSCSETENNKCCSTDRCNK (disulfide 4-20, 13-38, 42-50, 51-56 (inferred)) [L34A] | greater than 10 fold | 98 | 116 |  |  |
| H-SLKCYQHGKVVTCHRDMKFCYHNIGMPFRNLKLILAGCSSSCSETENNKCCSTDRCNK (disulfide 4-20, 13-38, 42-50, 51-56 (inferred)) [Q35A] |  | 71 | 168 |  |  |
| H-SLKCYQHGKVVTCHRDMKFCYHNIGMPFRNLKLILQGCSAACSETENNKCCSTDRCNK (disulfide 4-20, 13-38, 42-50, 51-56 (inferred)) [S39A/S40A] |  | 71 | 165 |  |  |
| H-SLKCYQHGKVVTCHRDMKFCYHNIGMPFRNLKLILQGCSSSCSETANNKCCSTDRCNK (disulfide 4-20, 13-38, 42-50, 51-56 (inferred)) [E45A] |  | 68 | 163 |  |  |
| H-SLKCYQHGKVVTCHRDMKFCYHNIGMPFRNLKLILQGCSSSCSETENNACCSTDRCNK (disulfide 4-20, 13-38, 42-50, 51-56 (inferred)) [K48A] |  | 70 | 154 |  |  |
| H-SLKCYQHGKVVTCHRDMKFCYHNIGMPFRNLKLILQGCSSSCSETENNKCCSTDACNK (disulfide 4-20, 13-38, 42-50, 51-56 (inferred)) [R54A] |  | 79 | 145 |  |  |
| H-SLKCYQHGKVVTCHRDMKFCYHNIGMPFRNLKLILQGCSSSCSETENNKCCSTDRCNA (disulfide 4-20, 13-38, 42-50, 51-56 (inferred)) [K57A] |  | 73 | 147 |  |  |
| LKCYQHGKVVTCHRDMKFCYHNTGMPFRNLKLILQGCSSSCSETENNKCCSTDRCNK (disulfide 3-19, 12-37, 41-49, 50-55) [Ma-1, reference compound] |  |  |  | 0.73–2.56 |  |
| Ma-3 H6A (peptide) |  |  |  |  | > 10 |
